Measured values reported in ChEMBL document CHEMBL3727364, “Resorcinol n-aryl amide compounds, for use as pyruvate dehydrogenase kinase inhibitors” (2015).
pIC50: −log10 of the molar value.

Molecular target: [Pyruvate dehydrogenase (acetyl-transferring)] kinase isozyme 1, mitochondrial (Homo sapiens, UniProt Q15118)
Assay: Binding affinity to pyruvate dehydrogenase kinase 1 (unknown origin) incubated for 90 mins by VER-00160364 probe based fluorescence polarization assay
Details: not given

[Pyruvate dehydrogenase (acetyl-transferring)] kinase isozyme 1, mitochondrial, sequence (Q15118 whole entry): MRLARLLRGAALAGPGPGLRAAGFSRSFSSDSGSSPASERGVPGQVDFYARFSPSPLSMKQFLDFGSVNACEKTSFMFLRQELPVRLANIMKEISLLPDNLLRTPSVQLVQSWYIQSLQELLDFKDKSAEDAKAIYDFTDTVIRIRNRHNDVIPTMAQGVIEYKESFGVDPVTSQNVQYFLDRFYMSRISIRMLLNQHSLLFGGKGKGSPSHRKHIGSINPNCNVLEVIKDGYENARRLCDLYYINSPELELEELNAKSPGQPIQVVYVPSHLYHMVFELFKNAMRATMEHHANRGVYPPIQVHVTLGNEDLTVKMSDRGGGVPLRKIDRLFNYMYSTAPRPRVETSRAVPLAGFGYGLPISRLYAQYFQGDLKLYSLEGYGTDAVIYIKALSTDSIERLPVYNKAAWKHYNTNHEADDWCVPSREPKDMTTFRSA

| SMILES | pIC50 |
| --- | --- |
| CS(=O)(=O)Nc1ccc(N(Cc2ccccc2)C(=O)c2ccc(O)cc2O)cc1 | 6.00 |
| O=C(c1ccc(N(Cc2cccnc2)C(=O)c2ccc(O)cc2O)cc1)N1CCC(O)CC1 | 7.00 |
| CN(Cc1cccc2cccnc12)C(=O)c1ccc(N(Cc2cccnc2)C(=O)c2ccc(O)cc2O)cc1 | 7.00 |
| CNc1nccc(-c2ccc(N(Cc3ccccc3)C(=O)c3ccc(O)cc3O)cc2)n1 | 5.00 |
| Cc1cc2ccccc2nc1-c1ccc(N(Cc2ccc(F)c(F)c2)C(=O)c2ccc(O)cc2O)cc1 | 7.00 |
| CN(C)C(=O)c1ccc(N(Cc2ccn(C)n2)C(=O)c2ccc(O)cc2O)cc1 | 7.00 |
| CCOc1ccc2nc(-c3ccc(N(Cc4ccsc4)C(=O)c4ccc(O)cc4O)cc3)c(C)cc2c1 | 6.00 |
| O=C(c1ccc(O)cc1O)N(Cc1ccccc1)c1ccccc1 | 6.00 |
| CN(Cc1ccc2nccnc2c1)C(=O)c1ccc(N(Cc2ccccc2)C(=O)c2ccc(O)cc2O)cc1 | 8.00 |
| Cc1cnc(NC(C)C)nc1-c1ccc(N(Cc2ccccc2)C(=O)c2ccc(O)cc2O)cc1 | 5.00 |
| COc1cc(-c2ccc(N(Cc3ccsc3)C(=O)c3ccc(O)cc3O)cc2)ncn1 | 5.00 |
| COc1ccc(CN(C)C(=O)c2ccc(N(Cc3cccnc3)C(=O)c3ccc(O)cc3O)cc2)cc1 | 8.00 |
| Cc1cc(S(=O)(=O)N2CCOCC2)cnc1-c1ccc(N(Cc2ccccc2)C(=O)c2ccc(O)cc2O)cc1 | 7.00 |
| Cc1cc(S(=O)(=O)N2CCCCC2)cnc1-c1ccc(N(Cc2ccccc2)C(=O)c2ccc(O)cc2O)cc1 | 7.00 |
| Cc1cc2ccc(F)cc2nc1-c1ccc(N(Cc2cccnc2)C(=O)c2ccc(O)cc2O)cc1 | 7.00 |
| Cc1c(-c2ccc(N(Cc3ccccc3)C(=O)c3ccc(O)cc3O)cc2)ccc2[nH]ncc12 | 6.00 |
| O=C(c1ccc(O)cc1O)N(Cc1ccsc1)c1ccc(-c2cnc3ccccc3n2)cc1 | 5.00 |
| CN(C)CCN(C)C(=O)c1ccc(N(Cc2ccccc2)C(=O)c2ccc(O)cc2O)cc1 | 6.00 |
| Nc1nccc(-c2ccc(N(Cc3cccnc3)C(=O)c3ccc(O)cc3O)cc2)n1 | 6.00 |
| Cc1cnc(-c2ccccc2)nc1-c1ccc(N(Cc2ccccc2)C(=O)c2ccc(O)cc2O)cc1 | 6.00 |
| CN(C)C(=O)c1ccc(N(Cc2ccccc2)C(=O)c2ccc(O)cc2O)cc1 | 7.00 |
| O=C(Nc1ccc(N(Cc2ccccc2)C(=O)c2ccc(O)cc2O)cc1)NC1CCCC1 | 5.00 |
| Cc1cc(S(=O)(=O)NCCN(C)C)cnc1-c1ccc(N(Cc2ccsc2)C(=O)c2ccc(O)cc2O)cc1 | 8.00 |
| Cc1cc(-c2ccc(N(Cc3cccnc3)C(=O)c3ccc(O)cc3O)cc2)cnc1Cl | 6.00 |
| O=C(c1ccc(O)cc1O)N(Cc1ccccc1)c1ccc(-c2nncc3ccccc23)cc1 | 6.00 |

| SMILES | pIC50 |
| --- | --- |
| CN(Cc1ccc(OC(F)(F)F)cc1)C(=O)c1ccc(N(Cc2ccsc2)C(=O)c2ccc(O)cc2O)cc1 | 6.00 |
| Cc1c(-c2ccc(N(Cc3cccnc3)C(=O)c3ccc(O)cc3O)cc2)ccc2[nH]ncc12 | 6.00 |
| Cc1cc(S(=O)(=O)NCc2ccncc2)cnc1-c1ccc(N(Cc2cccnc2)C(=O)c2ccc(O)cc2O)cc1 | 8.00 |
| N#Cc1cccc(-c2ccc(N(Cc3cccnc3)C(=O)c3ccc(O)cc3O)cc2)c1 | 6.00 |
| CN(Cc1ccc(C#N)cc1)C(=O)c1ccc(N(Cc2cccnc2)C(=O)c2ccc(O)cc2O)cc1 | 7.00 |
| O=C(c1ccc(O)cc1O)N(Cc1ccccc1)c1ccc(-c2nc(-c3ccccc3)nc3ccccc23)cc1 | 7.00 |
| Cc1nc(-c2ccc(N(Cc3ccsc3)C(=O)c3ccc(O)cc3O)cc2)c2ccccc2n1 | 6.00 |
| CC(c1ccccc1)N(C(=O)c1ccc(O)cc1O)c1ccc(C(=O)N(C)C)cc1 (stereo not drawn) | 6.00 |
| O=C(c1ccc(O)cc1O)N(Cc1cccnc1)c1ccc(-c2ccccc2Cl)cc1 | 6.00 |
| Cc1cc2ccccc2nc1-c1ccc(N(Cc2cccc3ccccc23)C(=O)c2ccc(O)cc2O)cc1 | 7.00 |
| CN(Cc1ccnc2ccccc12)C(=O)c1ccc(N(Cc2cccnc2)C(=O)c2ccc(O)cc2O)cc1 | 7.00 |
| Cc1csc2ncnc(-c3ccc(N(Cc4ccsc4)C(=O)c4ccc(O)cc4O)cc3)c12 | 7.00 |
| CN(Cc1cccs1)C(=O)c1ccc(N(Cc2ccsc2)C(=O)c2ccc(O)cc2O)cc1 | 7.00 |
| Cc1cc(S(=O)(=O)N2CCC(F)(F)CC2)cnc1-c1ccc(N(Cc2ccsc2)C(=O)c2ccc(O)cc2O)cc1 | 6.00 |
| O=C(c1ccc(O)cc1O)N(Cc1cccnc1)c1ccc(-c2cnc3ccccc3n2)cc1 | 6.00 |
| O=C(Nc1ccc(N(Cc2ccccc2)C(=O)c2ccc(O)cc2O)cc1)Nc1cccnc1 | 6.00 |
| Cc1cc(-c2ccc(N(Cc3ccccc3)C(=O)c3ccc(O)cc3O)cc2)nnc1Cl | 5.00 |
| CN(Cc1cccc2cccnc12)C(=O)c1ccc(N(Cc2ccccc2)C(=O)c2ccc(O)cc2O)cc1 | 7.00 |
| O=C(c1ccc(O)cc1O)N(Cc1ccccc1)c1ccc(-c2nc(Cl)nc3ccsc23)cc1 | 5.00 |
| Cc1cc(S(=O)(=O)N2CCCCC2)cnc1-c1ccc(N(Cc2cccnc2)C(=O)c2ccc(O)cc2O)cc1 | 8.00 |
| CCc1nccnc1-c1ccc(N(Cc2cccnc2)C(=O)c2ccc(O)cc2O)cc1 | 7.00 |
| CN(C)C(=O)c1ccc(N(Cc2ccncc2)C(=O)c2cc(Cl)c(O)cc2O)cc1 | 6.00 |
| Cc1nccnc1-c1ccc(N(Cc2ccccc2)C(=O)c2ccc(O)cc2O)cc1F | 6.00 |
| Cc1nc(C(F)(F)F)nc(-c2ccc(N(Cc3cccnc3)C(=O)c3ccc(O)cc3O)cc2)c1C | 8.00 |
| O=C(c1ccc(O)cc1O)N(Cc1cccnc1)c1ccc(-c2ncccc2CO)cc1 | 7.00 |

| SMILES | pIC50 |
| --- | --- |
| O=C(c1ccc(O)cc1O)N(Cc1ccccc1)c1ccc(-c2nc(Cl)c3c(n2)CCSC3)cc1 | 8.00 |
| Cc1ccc(S(N)(=O)=O)nc1-c1ccc(N(Cc2ccsc2)C(=O)c2ccc(O)cc2O)cc1 | 7.00 |
| O=C(c1ccc(O)cc1O)N(Cc1cccnc1)c1ccc(-c2ccc(-n3ccnc3)nn2)cc1 | 6.00 |
| Cc1cnc(Cl)nc1-c1ccc(N(Cc2ccsc2)C(=O)c2cc(Cl)c(O)cc2O)cc1 | 8.00 |
| Cc1cncnc1-c1ccc(N(Cc2cccnc2)C(=O)c2ccc(O)cc2O)cc1 | 7.00 |
| Cc1nc(N(C)C)nc(-c2ccc(N(Cc3cccnc3)C(=O)c3ccc(O)cc3O)cc2)c1C | 6.00 |
| O=C(c1ccc(O)cc1O)N(Cc1ccccc1)c1ccc(-c2ncnc3cccc(F)c23)cc1 | 6.00 |
| CN(C)C(=O)c1ccc(N(CC2CCCC2)C(=O)c2cc(Cl)c(O)cc2O)cc1 | 7.00 |
| CN(C)C(=O)c1ccc(N(Cc2ccc(C(F)(F)F)cc2)C(=O)c2cc(Cl)c(O)cc2O)cc1 | 7.00 |
| CCOC(=O)c1nc(-c2ccc(N(Cc3cccnc3)C(=O)c3ccc(O)cc3O)cc2)c2ccccc2n1 | 7.00 |
| CN(Cc1ccc2ccccc2c1)C(=O)c1ccc(N(Cc2ccsc2)C(=O)c2ccc(O)cc2O)cc1 | 6.00 |
| O=C(c1ccc(O)cc1O)N(Cc1ccsc1)c1ccc(-c2nc(C(F)(F)F)ccc2C(F)(F)F)cc1 | 6.00 |
| Cc1ccc(C)c(-c2ccc(N(Cc3ccccc3)C(=O)c3ccc(O)cc3O)cc2)n1 | 8.00 |
| C[C@H](c1ccccc1)N(C(=O)c1cc(Cl)c(O)cc1O)c1ccc(C(=O)N(C)C)cc1 | 6.00 |
| O=C(c1ccc(O)cc1O)N(Cc1ccccc1)c1ccc(-c2ccc(N3CCOCC3)nn2)cc1 | 6.00 |
| Cc1cc2ccccc2nc1-c1ccc(N(Cc2ccc(CN3CCOCC3)cc2)C(=O)c2ccc(O)cc2O)cc1 | 6.00 |
| Cc1cc(S(=O)(=O)NCCN(C)C)cnc1-c1ccc(N(Cc2ccccc2)C(=O)c2ccc(O)cc2O)cc1 | 7.00 |
| Cc1cc2ccccc2nc1-c1ccc(N(Cc2cccnc2)C(=O)c2ccc(O)cc2O)cc1 | 8.00 |
| CN(C)C(=O)c1ccc(N(Cc2csc3ccc(Cl)cc23)C(=O)c2cc(Cl)c(O)cc2O)cc1 | 6.00 |
| Cc1cc2ccccc2nc1-c1ccc(N(Cc2ccsc2)C(=O)c2ccc(O)cc2O)cc1 | 7.00 |
| Cc1cnc(Cl)nc1-c1ccc(N(Cc2ccc(C#N)cc2)C(=O)c2ccc(O)cc2O)cc1 | 7.00 |
| O=C(c1ccc(O)cc1O)N(Cc1ccccc1)c1ccc(-c2nc(Cl)nc3c2COCC3)cc1 | 6.00 |
| Cc1cc(-c2ccc(N(Cc3cccnc3)C(=O)c3ccc(O)cc3O)cc2)nnc1Cl | 6.00 |

Molecular target: Pyruvate dehydrogenase kinase (Homo sapiens, UniProt Q15119+Q15120+Q16654+Q15118)
Assay: Inhibition of pyruvate dehydrogenase kinase in human PC3 cells incubated for 90 mins by phospho(Ser293)E1alpha MSP ELISA method
Format: cell-based
Details: pc-3

| SMILES | IC50 [nM] |
| --- | --- |
| Cc1cnc(Cl)nc1-c1ccc(N(Cc2ccc(CNC(=O)[C@H](C)NC(=O)OCc3ccccc3)cc2)C(=O)c2ccc(O)cc2O)cc1 | 100 |
| Cc1cc(S(=O)(=O)NCc2cccs2)cnc1-c1ccc(N(Cc2cnsc2)C(=O)c2ccc(O)cc2O)cc1 | 1000 |
| COc1cnc(Cl)nc1-c1ccc(N(Cc2cnsc2)C(=O)c2ccc(O)cc2O)cc1 | 1000 |
| CCN(CC)CCOc1ccc(CN(C(=O)c2ccc(O)cc2O)c2ccc(-c3nc4ccccc4cc3C)cc2)cc1 | 1000 |
| Cc1cnc(Cl)nc1-c1ccc(N(Cc2cccc(OCCN3CCOCC3)c2)C(=O)c2ccc(O)cc2O)cc1 | 1000 |
| Cc1cnc(Cl)nc1-c1ccc(N(Cc2cccc(CN(C)C)c2)C(=O)c2ccc(O)cc2O)cc1 | 1000 |
| Cc1cnc(Cl)nc1-c1ccc(N(Cc2ccc(CN3CCC(F)(F)C3)cc2)C(=O)c2ccc(O)cc2O)cc1 | 100 |
| Cc1cc(C(=O)N(Cc2ccccc2)c2ccc(C(=O)N(C)Cc3ccc4nccnc4c3)cc2)c(O)cc1O | 1000 |
| Cc1cnc(Cl)nc1-c1ccc(N(Cc2ccc(CNC(=O)c3cccs3)cc2)C(=O)c2ccc(O)cc2O)cc1 | 100 |
| Cc1cnc(Cl)nc1-c1ccc(N(Cc2cccc(Cl)c2)C(=O)c2ccc(O)cc2O)cc1 | 100 |
| Cc1cc(S(=O)(=O)NCc2ccccn2)cnc1-c1ccc(N(Cc2ccsc2)C(=O)c2cc(Cl)c(O)cc2O)cc1 | 1000 |
| Cc1cnc(Cl)nc1-c1ccc(N(Cc2ccc(CNC(=O)C3CCC3)cc2)C(=O)c2ccc(O)cc2O)cc1 | 100 |
| Cc1cc2ccccc2nc1-c1ccc(N(Cc2ccc(OCCN3CCCC3)cc2)C(=O)c2ccc(O)cc2O)cc1 | 1000 |
| Cc1cnc(Cl)nc1-c1ccc(N(Cc2cccc(OCCN(C)C)c2)C(=O)c2ccc(O)cc2O)cc1 | 1000 |
| COC1CCN(Cc2ccc(CN(C(=O)c3ccc(O)cc3O)c3ccc(-c4nc(Cl)ncc4C)cc3)cc2)C1 (stereo not drawn) | 100 |
